Measured values taken from patent US9938262B2, “Benzamides” (Merck Patent GmbH, priority 2011, dated 2018).

Molecular target: T1, FSHR (Homo sapiens, UniProt P23945)
T1 construct: expressed in transfected cells; host or cells: CHO (Cho-FSHR-LUC-1-1-43)
Assay: EC50 of cyclic AMP production in CHO FSHR cells + EC20 FSH (Assay A)
Format: cell-based
Details: Table 1; for EC50: CHO FSHR cells + EC20 FSH, read-out: Assay A EC50 of cyclic AMP production; for activation at 5 µM: 1 h, effect relative to maximum response of the FSH standard
Method: Example 10: EC50 of Cyclic AMP Production in CHO FSHR Cells+EC20 FSH (Assay A)
2500 Cho-FSHR-LUC-1-1-43 cells were plated per well in 5 μl of phenol red free DMEM/F12+1% FBS. Cells were plated in 384 well, solid white low volume plates (Greiner 784075) by Multidrop. Cells were assayed by adding 100 μl of 2×EC20 FSH/IBMX in DMEM/F12+0.1% BSA) by Multidrop to 2 μl of test compound stamped in 384 well plates (compounds are diluted 1:50). The final FSH concentration was […], and the final IBMX concentration was 200 μM. The compound plate map was as follows: Column 1: 2 μl of DMSO; Column 2: 2 μl of DMSO; Columns 3-12 and 13-24: 2 μl of test compound, diluted 1:4 in 100% DMSO, or 2 μl of FSH, diluted 1:4 in DMEM/F12+0.1% BSA. The starting concentration for FSH was 50 nM (final concentration was 0.5 nM). […] 5 μl of compound+EC20 FSH mixture were transferred to cell plates (1:2 dilution into 5 μl of cell media) The plates were incubated at 37° C. for 1 h. 10 μl of mixed HTRF (CisBio #62AM4PEC) reagents were added per well and incubated at room temperature for 1 h. The plates were read on Envision using the cAMP HTRF—low volume 384 well protocol. The readout was the calculated fluorescence ratio (665 nm/620 nm). Values given in percent (%) indicate the percental effect (response) at a certain concentration of agonist relative to the maximum response of the FSH standard.

T1 sequence (P23945 18-695): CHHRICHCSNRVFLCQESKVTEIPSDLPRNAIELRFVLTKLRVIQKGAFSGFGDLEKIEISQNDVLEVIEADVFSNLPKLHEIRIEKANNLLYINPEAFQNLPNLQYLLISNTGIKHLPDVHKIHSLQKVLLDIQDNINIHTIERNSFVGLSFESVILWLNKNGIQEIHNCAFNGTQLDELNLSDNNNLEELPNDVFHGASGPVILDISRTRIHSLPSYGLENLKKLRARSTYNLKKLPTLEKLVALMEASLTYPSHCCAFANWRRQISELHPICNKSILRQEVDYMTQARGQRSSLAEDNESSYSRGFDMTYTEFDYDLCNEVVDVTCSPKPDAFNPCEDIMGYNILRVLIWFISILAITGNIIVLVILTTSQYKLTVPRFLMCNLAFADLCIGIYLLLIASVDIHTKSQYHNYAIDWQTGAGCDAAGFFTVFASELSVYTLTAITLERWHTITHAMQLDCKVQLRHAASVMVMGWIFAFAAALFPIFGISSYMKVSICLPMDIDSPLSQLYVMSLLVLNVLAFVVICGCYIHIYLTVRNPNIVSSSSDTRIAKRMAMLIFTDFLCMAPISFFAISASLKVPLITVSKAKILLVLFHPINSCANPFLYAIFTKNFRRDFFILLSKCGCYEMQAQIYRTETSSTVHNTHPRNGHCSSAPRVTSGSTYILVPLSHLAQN
T1 sequence (P01215 25-116 partner): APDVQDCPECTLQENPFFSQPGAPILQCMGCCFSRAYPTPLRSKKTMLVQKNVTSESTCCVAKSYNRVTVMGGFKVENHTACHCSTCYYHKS
T1 sequence (P01225 19-129 partner): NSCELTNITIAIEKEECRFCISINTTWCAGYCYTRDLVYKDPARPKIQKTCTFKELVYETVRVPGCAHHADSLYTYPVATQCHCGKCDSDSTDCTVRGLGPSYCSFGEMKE

Compound: Cc1cc(C(=O)Nc2cc(C(=O)NCCCN3CCCC3=O)ccc2N2CCN(c3ccccc3C)CC2)c(C(F)(F)F)o1 [Compound 1]
- EC50: 100 to 1000 nM

Compound: Cc1ccccc1N1CCN(c2ccc(C(=O)NCCCN3CCCC3=O)cc2NC(=O)c2sccc2Br)CC1 [Compound 4]
- EC50: 1000 to 10000 nM

Compound: Cc1ccccc1N1CCN(c2ccc(C(=O)NCCCN3CCCC3=O)cc2NC(=O)c2occc2Br)CC1 [Compound 7]
- EC50: 1000 to 10000 nM

Compound: Cc1ccccc1N1CCN(c2ccc(C(=O)NCCc3c[nH]c4ccccc34)cc2NC(=O)c2ccco2)CC1 [Compound 10, Furan-2-carboxylic acid [5-[2-(1H-indol-3-yl)-ethylcarbamoyl]-2-(4-o-tolyl-piperazin-1-yl)-phenyl]-amide]
- activation at 5 µM: 39%

Compound: Cc1ccccc1N1CCN(c2ccc(C(=O)N[C@@H](C)c3ccccc3)cc2NC(=O)c2ccco2)CC1 [Compound 11, furan-2-carboxylic acid [5-((S)-1-phenyl-ethylcarbamoyl)-2-(4-o-tolyl-piperazin-1-yl)-phenyl]-amide]
- EC50: 100 to 1000 nM

Compound: Cc1ccccc1N1CCN(c2ccc(C(=O)N3CCN(C(=O)OC(C)(C)C)CC3)cc2NC(=O)c2ccco2)CC1 [Compound 12]
- activation at 5 µM: 7%

Compound: Cc1ccccc1N1CCN(c2ccc(C(=O)NCCCN3CCCC3=O)cc2NC(=O)c2ccc(-c3ccccc3)o2)CC1 [Compound 13]
- activation at 5 µM: 14%

Compound: Cc1cc(C(=O)Nc2cc(C(=O)NCCCN3CCCC3=O)ccc2N2CCN(c3ccccc3C)CC2)c(C)o1 [Compound 14]
- EC50: 100 to 1000 nM

Compound: COc1ccc(CNC(=O)c2ccc(N3CCN(c4ccccc4C)CC3)c(NC(=O)c3ccco3)c2)cc1OC [Compound 17]
- EC50: 100 to 1000 nM

Compound: Cc1ccccc1N1CCN(c2ccc(C(=O)NCCCN3CCCC3=O)cc2NC(=O)c2ccccc2Cl)CC1 [Compound 19]
- EC50: 1000 to 10000 nM

Compound: Cc1ccccc1N1CCN(c2ccc(C(=O)NCCCN3CCCC3=O)cc2NC(=O)c2cccs2)CC1 [Compound 20]
- EC50: 100 to 1000 nM

Compound: Cc1ccccc1N1CCN(c2ccc(C(=O)N[C@@H]3CCCN(C(=O)OC(C)(C)C)C3)cc2NC(=O)c2ccco2)CC1 [Compound 21]
- activation at 5 µM: 22%

Compound: Cc1ccccc1N1CCN(c2ccc(C(=O)N[C@@H]3CCCNC3)cc2NC(=O)c2ccco2)CC1 [Compound 22]
- EC50: 1000 to 10000 nM

Compound: CC(=O)N1CCN(C(=O)c2ccc(N3CCN(c4ccccc4C)CC3)c(NC(=O)c3ccco3)c2)CC1 [Compound 23]
- activation at 5 µM: 4%

Compound: Cc1ccccc1N1CCN(c2ccc(C(=O)NCCCN3CCCC3=O)cc2NC(=O)c2ccc[nH]2)CC1 [Compound 24]
- EC50: 1000 to 10000 nM

Compound: Cc1ccccc1N1CCN(c2ccc(C(=O)NCCCN3CCCC3=O)cc2NC(=O)c2cnc(Br)s2)CC1 [Compound 25]
- EC50: 1000 to 10000 nM

Compound: Cc1ccccc1N1CCN(c2ccc(C(=O)NCCCN3CCCC3=O)cc2NC(=O)CC(C)C)CC1 [Compound 26]
- EC50: 1000 to 10000 nM

Compound: Cc1ccccc1N1CCN(c2ccc(C(=O)NCCCN3CCCC3=O)cc2NC(=O)c2cccc(Cl)c2)CC1 [Compound 28]
- EC50: 1000 to 10000 nM

Compound: Cc1ccccc1N1CCN(c2ccc(C(=O)NCCCN3CCCC3=O)cc2NC(=O)c2ccc(Cl)cc2)CC1 [Compound 29]
- EC50: 100 to 1000 nM

Compound: Cc1ccccc1N1CCN(c2ccc(C(=O)NCCCN3CCCC3=O)cc2NC(=O)c2cccc(F)c2)CC1 [Compound 30]
- EC50: 1000 to 10000 nM

Compound: Cc1ccccc1N1CCN(c2ccc(C(=O)NCCCN3CCCC3=O)cc2NC(=O)c2ccc(C#N)cc2)CC1 [Compound 33]
- EC50: 1000 to 10000 nM

Compound: Cc1cccc(C(=O)Nc2cc(C(=O)NCCCN3CCCC3=O)ccc2N2CCN(c3ccccc3C)CC2)c1 [Compound 34]
- EC50: 1000 to 10000 nM

Compound: Cc1ccccc1N1CCN(c2ccc(C(=O)NCCCN3CCCC3=O)cc2NC(=O)c2cccnc2)CC1 [Compound 37]
- activation at 5 µM: 37%

Compound: Cc1ccccc1N1CCN(c2ccc(C(=O)NCCCN3CCCC3=O)cc2NC(=O)c2cccc(C(F)(F)F)c2)CC1 [Compound 39]
- activation at 5 µM: 15%

Compound: Cc1ccccc1N1CCN(c2ccc(C(=O)NCCCN3CCCC3=O)cc2NC(=O)c2ccc(C(F)(F)F)cc2)CC1 [Compound 40]
- activation at 5 µM: 40%

Compound: COc1ccccc1C(=O)Nc1cc(C(=O)NCCCN2CCCC2=O)ccc1N1CCN(c2ccccc2C)CC1 [Compound 41]
- EC50: 1000 to 10000 nM

Compound: COc1ccc(C(=O)Nc2cc(C(=O)NCCCN3CCCC3=O)ccc2N2CCN(c3ccccc3C)CC2)cc1 [Compound 42]
- EC50: 100 to 1000 nM

Compound: Cc1ccccc1N1CCN(c2ccc(C(=O)NCCCN3CCCC3=O)cc2NC(=O)c2ccc3ccccc3c2)CC1 [Compound 43]
- activation at 5 µM: 44%

Compound: Cc1ccccc1N1CCN(c2ccc(C(=O)NCCCN3CCCC3=O)cc2NC(=O)c2cccc3cccnc23)CC1 [Compound 44]
- activation at 5 µM: 44%

Compound: Cc1ccccc1N1CCN(c2ccc(C(=O)NCCCN3CCCC3=O)cc2NS(=O)(=O)c2ccco2)CC1 [Compound 46]
- activation at 5 µM: 10%

Compound: CCNC(=O)N1CCC[C@@H](NC(=O)c2ccc(N3CCN(c4ccccc4C)CC3)c(NC(=O)c3ccco3)c2)C1 [Compound 48, (R)-3-[3-[(furan-2-carbonyl)-amino]-4-(4-o-tolyl-piperazin-1-yl)-benzoylamino]-piperidine-1-carboxylic acid ethylamide]
- EC50: 1000 to 10000 nM

Compound: Cc1ccccc1N1CCN(c2ccc(C(=O)NC3CCN(C(=O)OC(C)(C)C)CC3)cc2NC(=O)c2ccco2)CC1 [Compound 49, 4-[3-[(Furan-2-carbonyl)-amino]-4-(4-o-tolyl-piperazin-1-yl)-benzoylamino]-piperidine-1-carboxylic acid tert-butyl ester]
- EC50: 100 to 1000 nM

Compound: Cc1cc(C)c(C(=O)Nc2cc(C(=O)NCCCN3CCCC3=O)ccc2N2CCN(c3ccccc3C)CC2)o1 [Compound 51]
- activation at 5 µM: 39%

Compound: CNC[C@@H](NC(=O)c1ccc(N2CCN(c3ccccc3C)CC2)c(NC(=O)c2ccco2)c1)c1ccc(Cl)cc1 [Compound 55, Furan-2-carboxylic acid [5-[(S)-1-(4-chloro-phenyl)-2-methylamino-ethylcarbamoyl]-2-(4-o-tolyl-piperazin-1-yl)-phenyl]-amide]
- EC50: 1000 to 10000 nM

Compound: CC(=O)N1CCC(NC(=O)c2ccc(N3CCN(c4ccccc4C)CC3)c(NC(=O)c3ccco3)c2)CC1 [Compound 56, Furan-2-carboxylic acid [5-(1-acetyl-piperidin-4-ylcarbamoyl)-2-(4-o-tolyl-piperazin-1-yl)-phenyl]-amide]
- EC50: 1000 to 10000 nM

Compound: CC(=O)N(C)C[C@@H](NC(=O)c1ccc(N2CCN(c3ccccc3C)CC2)c(NC(=O)c2ccco2)c1)c1ccc(Cl)cc1 [Compound 57]
- EC50: 1000 to 10000 nM

Compound: COc1ccc(C(=O)Nc2cc(C(=O)NCCCN3CCCC3=O)ccc2N2CCN(c3ccccc3C)CC2)c(OC)c1 [Compound 59]
- EC50: 1000 to 10000 nM

Compound: CCOC(=O)N1CCN(c2ccc(C(=O)NCCCN3CCCC3=O)cc2NC(=O)c2ccco2)CC1 [Compound 62, 4-{2-[(Furan-2-carbonyl)-amino]-4-[3-(2-oxo-pyrrolidin-1-yl)-propylcarbamoyl]-phenyl}-piperazine-1-carboxylic acid ethyl ester]
- activation at 5 µM: 42%

Compound: Cc1ccccc1N1CCN(c2ccc(C(=O)NCCN(C)C(=O)OC(C)(C)C)cc2NC(=O)c2ccco2)CC1 [Compound 64, {2-[3-[(Furan-2-carbonyl)-amino]-4-(4-o-tolyl-piperazin-1-yl)-benzoylamino]-ethyl}-methyl-carbamic acid tert-butyl ester]
- activation at 5 µM: 72%

Compound: CCOc1cc(CCNC(=O)c2ccc(N3CCN(c4ccccc4C)CC3)c(NC(=O)c3ccco3)c2)ccc1OC [Compound 65]
- EC50: 1000 to 10000 nM

Compound: Cc1ccccc1N1CCN(c2ccc(C(=O)N[C@H](CO)c3ccccc3)cc2NC(=O)c2ccco2)CC1 [Compound 67, Furan-2-carboxylic acid [5-((S)-2-hydroxy-1-phenyl-ethylcarbamoyl)-2-(4-o-tolyl-piperazin-1-yl)-phenyl]-amide]
- EC50: 100 to 1000 nM

Compound: Cc1ccccc1N1CCN(c2ccc(C(=O)NCCCN3CCCC3=O)cc2NC(=O)c2ccoc2C)CC1 [Compound 68]
- EC50: 1000 to 10000 nM

Compound: Cc1ccccc1N1CCN(c2ccc(C(=O)NCCCN3CCCC3=O)cc2NC(=O)c2ccsc2)CC1 [Compound 69]
- EC50: 100 to 1000 nM

Compound: Cc1ccccc1N1CCN(c2ccc(C(=O)NCCCN3CCCC3=O)cc2NC(=O)c2scnc2C)CC1 [Compound 70]
- EC50: > 10000 nM

Compound: Cc1nc(C(F)(F)F)c(C(=O)Nc2cc(C(=O)NCCCN3CCCC3=O)ccc2N2CCN(c3ccccc3C)CC2)s1 [Compound 71]
- EC50: 1000 to 10000 nM

Compound: Cc1ccccc1N1CCN(c2ccc(C(=O)NCCCN3CCCC3=O)cc2NC(=O)c2sc(Br)nc2C)CC1 [Compound 72]
- EC50: > 10000 nM

Compound: Cc1nc(C(=O)Nc2cc(C(=O)NCCCN3CCCC3=O)ccc2N2CCN(c3ccccc3C)CC2)c(C(F)(F)F)o1 [Compound 76]
- EC50: 1000 to 10000 nM

Compound: CCc1ocnc1C(=O)Nc1cc(C(=O)NCCCN2CCCC2=O)ccc1N1CCN(c2ccccc2C)CC1 [Compound 77]
- EC50: 1000 to 10000 nM

Compound: Cc1ccccc1N1CCN(c2ccc(C(=O)NCCCN3CCCC3=O)cc2NC(=O)c2ncoc2C)CC1 [Compound 78]
- EC50: 100 to 1000 nM

Compound: Cc1ccccc1N1CCN(c2ccc(C(=O)NCCCN3CCCC3=O)cc2NC(=O)c2conc2C)CC1 [Compound 80]
- activation at 5 µM: 22%
